Assay results published in ChEMBL document CHEMBL4049403, “Oligo-aspartic acid conjugates with benzo[c][2,6]naphthyridine-8-carboxylic acid scaffold as picomolar inhibitors of CK2” (Bioorg Med Chem, 2017).

Molecular target: Albumin (Bos taurus, UniProt P02769)
Experiment: Binding affinity to bovine serum albumin by fluorescence anisotropy based method
Type: ADME

Sequence of Albumin (P02769 whole entry): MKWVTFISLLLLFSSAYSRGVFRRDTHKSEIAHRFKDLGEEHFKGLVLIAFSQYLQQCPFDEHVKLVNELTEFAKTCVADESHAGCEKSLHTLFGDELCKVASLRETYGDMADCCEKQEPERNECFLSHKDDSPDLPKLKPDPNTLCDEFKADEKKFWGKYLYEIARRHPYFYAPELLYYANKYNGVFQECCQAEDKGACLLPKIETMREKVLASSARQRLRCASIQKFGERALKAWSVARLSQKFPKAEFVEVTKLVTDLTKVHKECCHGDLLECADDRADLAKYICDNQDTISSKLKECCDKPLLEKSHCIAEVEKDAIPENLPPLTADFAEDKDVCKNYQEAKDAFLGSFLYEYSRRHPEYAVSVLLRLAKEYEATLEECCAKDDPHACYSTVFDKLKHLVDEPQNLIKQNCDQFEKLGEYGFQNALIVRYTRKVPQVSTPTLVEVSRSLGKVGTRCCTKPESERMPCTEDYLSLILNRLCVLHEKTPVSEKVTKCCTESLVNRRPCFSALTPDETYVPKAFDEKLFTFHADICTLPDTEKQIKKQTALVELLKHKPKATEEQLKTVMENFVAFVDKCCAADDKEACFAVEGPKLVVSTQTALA

Row | Kd [nM] | SMILES
1 | > 50000 | CCN1c2cc(S(=O)(=O)O)ccc2\C(=C/C=C/C=C/C2=[N+](CC)c3ccc(S(=O)(=O)[O-])cc3C2(C)C)C1(C)CCCC(=O)NCCCC[C@H](NC(=O)CCCCCCCCOc1nc2cc(C(=O)O)ccc2c2cnccc12)C(=O)N[C@@H](CC(=O)O)C(=O)N[C@@H](CC(=O)O)C(=O)N[C@@H](CC(=O)O)C(=O)N[C@@H](CC(=O)O)C(=O)O (some centres not stated)
2 | 1700 | CCN1c2cc(S(=O)(=O)O)ccc2\C(=C/C=C/C=C/C2=[N+](CC)c3ccc(S(=O)(=O)[O-])cc3C2(C)C)C1(C)CCCC(=O)NCCCC[C@H](NC(=O)[C@H](CC(=O)O)NC(=O)[C@H](CC(=O)O)NC(=O)[C@H](CC(=O)O)NC(=O)[C@H](CC(=O)O)NC(=O)[C@H](CC(=O)O)NC(=O)[C@H](CC(=O)O)NC(=O)CCCCCCCn1cnc2c(Br)c(Br)c(Br)c(Br)c21)C(=O)O (some centres not stated)
